Consider 42 compounds from US11286268B1, “EIF4E-inhibiting compounds and methods” (EFFECTOR THERAPEUTICS, INC., priority 2019, dated 2022).

pIC50: −log10 of the molar value. Read-outs that look alike come from different tables or passages of the source.

The assay deals with recombinant eIF4E (Homo sapiens (Human), UniProt P06730). Briefly: Fluorescence polarization competition assay for eIF4E binding potency. As for the experimental part:
Compounds were screened for eIF4E binding potency using a fluorescence polarization competition assay. All binding reactions were performed in fluorescence polarization buffer (FPB) containing 20 mM Tris pH 7.5, 100 mM NaCl, 1 mM DTT, and 0.02% Tween-20. Final binding reactions contained 75 nM recombinant eIF4E (Beryllium, custom order), 20 nM EDA-m^7GDP-ATTO-550 (Jena Bioscience, NU-827-550) and varying concentrations of the inhibitory compound of interest. Final DMSO concentration in each reaction was 1%.
eIF4E protein was pre-incubated with EDA-m^7GDP-ATTO-550 in FPB at 2× concentrations for 5 minutes prior to the addition of compounds. Compounds (100×) were prepared using 3-fold serial dilutions in 100% DMSO, and subsequently diluted 1:50 in FPB to produce 2× stocks. 50 μl of 2× eIF4E/EDA-m^7GDP-ATTO-550 were transferred to the wells of a 96-well half-area black flat bottom polystyrene plate. 50 μl of 2× test compound were added, and binding reactions were allowed to equilibrate for 30 minutes at room temperature while protected from light. The fluorescent polarization signal was detected using a Victor 2 multi-label counter (Perkin Elmer) and the concentration necessary to achieve inhibition of eIF4E/EDA-m^7GDP-ATTO-550 binding by 50% (IC50) was calculated using data from an 8-point compound dilution series.
In Table 4A, IC50 values of less than 0.05 μM are labelled as “+++”, from 1 to 0.05 μM are labelled as “++”, and greater than 1 μM are labelled as “+”. ND=not determined.

The mark [1] stands for this setting: fluorescence polarization competition, 75 nM recombinant eIF4E, 20 nM EDA-m7GDP-ATTO-550, IC50 class, read-out: elF4E FP.
[2] abbreviates: inhibition of eIF4E/EDA-m7GDP-ATTO-550 binding by 50%, Table 4B calculated values, read-out: IC50.
The mark [3] stands for this setting: inhibition of eIF4E/EDA-m7GDP-ATTO-550 binding, calculated IC50 values, Table 4B, read-out: IC50.

recombinant eIF4E, sequence (P06730 whole entry): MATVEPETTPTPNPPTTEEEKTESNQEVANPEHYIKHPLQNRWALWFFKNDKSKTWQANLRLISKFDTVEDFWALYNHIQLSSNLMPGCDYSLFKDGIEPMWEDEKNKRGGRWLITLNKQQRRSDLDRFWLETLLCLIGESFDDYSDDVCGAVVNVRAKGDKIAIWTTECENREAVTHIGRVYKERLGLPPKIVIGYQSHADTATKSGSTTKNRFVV

For the compound `Cc1cc(-c2cc(Cl)ccc2OCCn2c(C)nc3c(C)nc(CC4CCOCC4)c(C#N)c3c2=O)c2scc(C(=O)O)c2n1` [compound 400], the pIC50 reads like this: under setting [1], above 7.30; under setting [2], 8.33. The like results for `Cc1nc2c(F)cc(F)c(C#N)c2c(=O)n1CCOc1ccc(Cl)cc1-c1ccnc2c(C(=O)O)csc12` [compound 241] were, in that order, above 7.30 and 8.31.

`Cc1cc(-c2cc(Cl)ccc2OCCn2c(C)nc3c(C)ncc(C#N)c3c2=O)c2scc(C(=O)O)c2n1` [compound 673]: the pIC50 by setting is: under setting [1], above 7.30; under setting [2], 7.60. Consider `Cc1nc2cc(C(F)(F)F)c(N3CC4(C3)CN(C3CC3)C4)c(C#N)c2c(=O)n1CCOc1ccc(Cl)cc1-c1ccnc2c(C(=O)NS(C)(=O)=O)csc12` [compound 1930], for which the pIC50 under setting [3] is 8.32. Take `CCOc1c(C(F)(F)F)cc2nc(C)n(CCOc3ccc(Cl)cc3-c3cc(C)nc4c(C(=O)O)csc34)c(=O)c2c1C#N` [compound 1073]: the pIC50 under setting [1] was 6.00 to 7.30 and the pIC50 under setting [2] was 7.24. The like results for `Cc1cc(-c2cc(Cl)ccc2OCCn2c(C)nc3cc(C(F)(F)F)c(-c4cc(C)n(C)n4)c(C#N)c3c2=O)c2scc(C(=O)O)c2n1` [compound 1029] were, in that order, above 7.30 and 8.12. In the case of `Cc1nc2cnc(N(C)C3CCN(C4CC(F)(F)C4)CC3)c(C#N)c2c(=O)n1CC#Cc1ccc(Cl)cc1-c1ccnc2c(C(=O)NS(=O)(=O)C3COC3)csc12` [compound 1811], the pIC50 under setting [3] is 7.90. For `COC(C)c1ncc2nc(C)n(CCOc3ccc(Cl)cc3-c3cc(C)nc4c(C(=O)O)csc34)c(=O)c2c1C#N` (stereo not shown) [compound 988], the pIC50 under setting [1] is above 7.30 and the pIC50 under setting [2] was 7.66. The like results for `COc1ccc(C#N)c2c(=O)n(CCOc3ccc(Cl)cc3-c3ccnc4c(C(=O)O)csc34)c(C)nc12` [compound 403] were, in that order, above 7.30 and 7.90. For `Cc1cc(-c2cc(Cl)ccc2OCCn2c(C)nc3cc(-c4cccnc4)c(C)c(C#N)c3c2=O)c2scc(C(=O)O)c2n1` [compound 759], in that order: 6.00 to 7.30 and 7.28. The like results for `CCc1cc(-c2cc(Cl)ccc2OCCn2c(C)nc3cc(C(F)(F)F)c(N4CCN(C)CC4)c(C#N)c3c2=O)c2scc(C(=O)O)c2n1` [compound 1085] were, in that order, 6.00 to 7.30 and 7.27. As for `Cc1nc2cnc(N(C)[C@H]3[C@@H]4CC[C@H]3CN(CC(C)(F)F)C4)c(C#N)c2c(=O)n1CC#Cc1ccc(Cl)cc1-c1ccnc2c(C(=O)O)csc12` [compound 1690], the pIC50 under setting [3] was 7.56.

Consider `Cc1cnc(-c2nc3c(=O)n(CCOc4ccc(Cl)cc4-c4cc(C)nc5c(C(=O)O)csc45)c(C)nc3cc2C(F)(F)F)c(Cl)n1` [compound 1024], for which the pIC50 was above 7.30 under setting [1] and 7.62 under setting [2]. Turning to `Cc1nc2cnc(N(C)C3CCN([C@H]4C[C@H](F)C4)CC3)c(C#N)c2c(=O)n1CC#Cc1ccc(Cl)cc1-c1ccnc2c(C(=O)NS(=O)(=O)C3COC3)csc12` [compound 1791], the pIC50 under setting [3] is 8.00. As for `Cc1nc2cc(C(F)(F)F)cc(C#N)c2c(=O)n1CCOc1ccc(Cl)cc1-c1cc(=O)n(C)c2c(C(=O)O)csc12` [compound 332], the pIC50 under setting [1] is above 7.30 and the pIC50 under setting [2] is 7.42.

Turning to `N#Cc1cc(Br)cc2ncn(CCOc3ccc(Cl)cc3-c3cccc(C(=O)O)c3)c(=O)c12` [compound 1988], the pIC50 under setting [3] was 7.31. Turning to `Cc1nc2c(F)cc(C(F)F)c(C#N)c2c(=O)n1CCOc1ccc(Cl)cc1-c1ccnc2c(C(=O)O)csc12` [compound 22], the pIC50 is above 7.30 under setting [1] and 7.60 under setting [2]. For `Cc1nc2c(N3CCN(CC(F)F)C4CC43)ncc(C#N)c2c(=O)n1CCOc1ccc(Cl)cc1-c1ccnc2c(C(=O)O)csc12` (stereo not shown) [compound 818], in that order: above 7.30 and 7.88. Turning to `Cc1nc2cnc(N3CCN(CC(F)F)CC3)c(C#N)c2c(=O)n1CC#Cc1ccc(Cl)cc1-c1ccnc2c(C(=O)O)csc12` [compound 1356], under setting [3], the pIC50 is 7.63. The same measure, in the same setting: next, `Cc1nc2cnc(N(C)C3CCN(C4CC(F)(F)C4)CC3)c(C#N)c2c(=O)n1CC#Cc1ccc(Cl)cc1-c1ccnc2c(C(=O)NS(=O)(=O)C3CC(F)(F)C3)csc12` [compound 1833]: 7.83; `Cc1nc2cnc(N3CCN(CCF)C4(CC4)C3)c(C#N)c2c(=O)n1CCOc1ccc(Cl)cc1-c1ccnc2c(C(=O)O)csc12` [compound 1338]: 8.02. On to `Cc1cccc(-c2ncc3nc(C)n(CCOc4ccc(Cl)cc4-c4cc(C)nc5c(C(=O)O)csc45)c(=O)c3c2C#N)c1` [compound 945], for which the pIC50 under setting [1] is above 7.30 and the pIC50 under setting [2] is 7.41. The like results for `Cc1cc(-c2cc(Cl)ccc2OCCn2c(C)nc3nc(C(F)(F)F)c(N4CCN(C)CC4)cc3c2=O)c2scc(C(=O)O)c2n1` [compound 849] were, in that order, above 7.30 and 7.84.

For the compound `Cc1cccc(-c2c(C(F)(F)F)cc3nc(C)n(CCOc4ccc(Cl)cc4-c4cc(C)nc5c(C(=O)O)csc45)c(=O)c3c2C#N)n1` [compound 675], the pIC50 is, setting by setting: under setting [1], above 7.30; under setting [2], 8.11.

Regarding `COc1cc(S(=O)(=O)NC(=O)c2csc3c(-c4cc(Cl)ccc4C#CCn4c(C)nc5cnc(N(C)C6CCN(CC(C)(F)F)CC6)c(C#N)c5c4=O)ccnc23)ccn1` [compound 1683], the pIC50 under setting [3] was 7.74. Regarding `C=C(c1ncc2nc(C)n(CCOc3ccc(Cl)cc3-c3cc(C)nc4c(C(=O)O)csc34)c(=O)c2c1C#N)C(F)(F)F` [compound 989], the pIC50 under setting [1] is above 7.30 and the pIC50 under setting [2] was 7.70.

As for `Cc1nc2cnc(N(C)C3C[C@H]4C[C@@H]3CN4CC(C)(F)F)c(C#N)c2c(=O)n1CCOc1ccc(Cl)cc1-c1ccnc2c(C(=O)O)csc12` (stereo partly shown) [compound 1688], under setting [3], the pIC50 is 7.90.

`Cc1cc(-c2cc(Cl)ccc2OCCn2c(C)nc3cc(C(F)(F)F)c(CN4CCNCC4)c(C#N)c3c2=O)c2scc(C(=O)O)c2n1` [compound 649]: the pIC50 is, setting by setting: under setting [1], above 7.30; under setting [2], 7.82. For `Cc1nc2cnc(N(C)C3CCN(C4CC(F)(F)C4)CC3)c(C#N)c2c(=O)n1CC#Cc1ccc(Cl)cc1-c1ccnc2c(C(=O)NS(=O)(=O)c3ccccn3)csc12` [compound 1109], in that order: above 7.30 and 7.87.

In the case of `CSc1ncc(-c2cc(Cl)ccc2OCCn2cnc3cnc(C#N)cc3c2=O)nc1C(=O)O` [compound 98], the pIC50 by setting is: under setting [1], 6.00 to 7.30; under setting [2], 6.25. For `O=C(O)c1cccc(-c2cc(Cl)ccc2OCCn2cnc3ncncc3c2=O)c1` [compound 17], in that order: 6.00 to 7.30 and 6.14. Regarding `Cc1nc2cnc(N3CCC(N(CC(F)F)C4COC4)CC3)c(C#N)c2c(=O)n1CC#Cc1ccc(Cl)cc1-c1ccnc2c(C(=O)O)csc12` [compound 1553], the pIC50 under setting [3] is 7.89. With `Cc1nc2cnc(N(C)C3CCN(C4(CF)CC4)CC3)c(C#N)c2c(=O)n1CC#Cc1ccc(Cl)cc1-c1ccnc2c(C(=O)O)csc12` [compound 1529], the pIC50 under setting [3] is 7.70. Take `Cc1cc(-c2cc(Cl)ccc2OCCn2c(C)nc3cnc(N4CC(O)C4)c(C#N)c3c2=O)c2scc(C(=O)O)c2n1` [compound 1011]: the pIC50 reads like this: under setting [1], above 7.30; under setting [2], 8.15.

Take `Cc1cc(-c2cc(Cl)ccc2OCCn2c(C)nc3cnc(C4(F)CN(C)C4)c(C#N)c3c2=O)c2scc(C(=O)O)c2n1` [compound 1421]: under setting [3], the pIC50 was 7.44. On to `O=C(O)c1cccc(-c2cc(Cl)ccc2OCCn2ccc3nnccc3c2=O)c1` [compound 15], for which the pIC50 reads like this: under setting [1], below 6.00; under setting [2], 5.76. For `Cc1cc(-c2cc(Cl)ccc2OCCn2c(C)nc3cc(C(F)(F)F)cc(C#N)c3c2=O)c2scc(C(=O)NCC(=O)O)c2n1` [compound 398], in that order: 6.00 to 7.30 and 6.83. The like results for `Cc1cc(-c2cc(Cl)ccc2OCCn2c(C)nc3c(-c4ccccc4)nc(C4CC4)c(C#N)c3c2=O)c2scc(C(=O)O)c2n1` [compound 910] were, in that order, above 7.30 and 7.76. With `COc1c(CCOc2ccc(Cl)cc2-c2ccnc3c(C(=O)O)csc23)c(C)cc2cc(C(F)(F)F)cc(C#N)c12` [compound 1977], the pIC50 under setting [3] is below 6.00. With `Cc1cc(-c2cc(Cl)ccc2OCCn2c(C)nc3cc(C(F)(F)F)c(N4CC(F)(F)C4)c(C#N)c3c2=O)c2scc(C(=O)O)c2n1` [compound 687], the pIC50 is, setting by setting: under setting [1], above 7.30; under setting [2], 7.87. The like results for `Cc1cc(-c2cc(Cl)ccc2OCCn2c(C)nc3c(F)cc(C(F)F)c(C#N)c3c2=O)c2scc(C(=O)O)c2n1` [compound 587] were, in that order, above 7.30 and 7.59. As to `CCc1cc(-c2cc(Cl)ccc2OCCn2c(C)nc3cnc(N4CCNC5CC54)c(C#N)c3c2=O)c2scc(C(=O)O)c2n1` (stereo not shown) [compound 1220], the pIC50 is above 7.30 under setting [1] and 7.88 under setting [3].
